# Test results from paper PMC2533696 (PLoS Pathogens, 2008).
# Where a SMILES comes first, the peptide text is derived from it. Where no end group is shown, it is not given here.
# Key:
# [1] = molecular target: Clostridium botulinum neurotoxin serotype A truncated light chain (residues 1 to 424), Balc424 (Clostridium botulinum, UniProt P0DPI0); assay: biochemical; details: 37°C, 30 min
# BoNT/A = details: read-out: Kι; cited from earlier work
# Sequence of Clostridium botulinum neurotoxin serotype A truncated light chain (residues 1 to 424), Balc424 (P0DPI0 1-424 limits assumed): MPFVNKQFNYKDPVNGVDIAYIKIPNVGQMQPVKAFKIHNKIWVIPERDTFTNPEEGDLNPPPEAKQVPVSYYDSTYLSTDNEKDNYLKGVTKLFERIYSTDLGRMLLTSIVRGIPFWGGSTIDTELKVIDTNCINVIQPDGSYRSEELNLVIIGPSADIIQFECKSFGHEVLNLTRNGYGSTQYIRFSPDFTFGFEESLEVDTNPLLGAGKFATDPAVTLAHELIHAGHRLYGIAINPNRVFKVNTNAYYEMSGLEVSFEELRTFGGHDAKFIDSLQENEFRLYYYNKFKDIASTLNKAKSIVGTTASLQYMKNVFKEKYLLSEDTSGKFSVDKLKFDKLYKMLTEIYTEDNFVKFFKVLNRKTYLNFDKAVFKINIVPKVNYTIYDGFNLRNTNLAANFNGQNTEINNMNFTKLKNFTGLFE
Molecule,IC50 [1] [µM],Ki (BoNT/A) [nM]
CSCC[C@H](NC(=O)[C@H](CCCCN)NC(=O)[C@@H](NC(=O)[C@H](C)NC(=O)[C@H](CCCNC(=N)N)NC(=O)[C@@H](N)CCC(N)=O)[C@@H](C)O)C(N)=O [QRATKM] (H-QRATKM-NH2),133,–
Ac-CRATKML,–,1900
